Measured values as given in publication PMC9145245, “Synthesis and Biochemical Evaluation of 8H-Indeno[1,2-d]thiazole Derivatives as Novel SARS-CoV-2 3CL Protease Inhibitors” (Molecules, 2022).
Read-outs that look alike come from different tables or passages of the source.

Biological target: SARS-CoV-2 3CL^pro (Severe acute respiratory syndrome coronavirus 2, UniProt P0DTD1)
Assay: biochemical
Type: biochemical
Conditions: for inhibition at 20 µM: 20 μM compound; for inhibitory activity against SARS-CoV-2 3CL^pro (in words, SAR discussion): compared with 7a (7i–7k with 7h)
[1] = recombinant 3CLpro 40 nM, substrate 40 μM, mean ± SD, n = 3, read-out: SARS-CoV-2 3CL^pro IC50
[2] = recombinant 3CLpro 40 nM, mean ± SD, n = 3

COc1cc(OC)cc(C(=O)Nc2nc3c(s2)Cc2ccc(OC)cc2-3)c1 [compound 4, 3,5-dimethoxy-N-(5-methoxy-8H-indeno[1,2-d]thiazol-2-yl)benzamide]
IC50 [1]: 6.42 ± 0.9 µM

COc1cc(OC)cc(C(=O)Nc2nc3c(s2)Cc2cc(OC)ccc2-3)c1 [compound 7a]
inhibition at 20 µM [2]: 89.5 ± 2% | IC50 [1]: 1.28 ± 0.17 µM

CCCCOc1ccc2c(c1)Cc1sc(NC(=O)c3cc(OC)cc(OC)c3)nc1-2 [compound 7b, N-(6-butoxy-8H-indeno[1,2-d]thiazol-2-yl)-3,5-dimethoxybenzamide]
inhibition at 20 µM [2]: 0.5 ± 4.9% | inhibitory activity against SARS-CoV-2 3CL^pro (in words, SAR discussion): completely abolished | IC50 [1]: > 20 µM

COc1cc(OC)cc(C(=O)Nc2nc3c(s2)Cc2cc(OCC(C)C)ccc2-3)c1 [compound 7c, N-(6-isobutoxy-8H-indeno[1,2-d]thiazol-2-yl)-3,5-dimethoxybenzamide]
inhibition at 20 µM [2]: -3.1 ± 1.7% | inhibitory activity against SARS-CoV-2 3CL^pro (in words, SAR discussion): completely abolished | IC50 [1]: > 20 µM

COc1cc(OC)cc(C(=O)Nc2nc3c(s2)Cc2cc(C)ccc2-3)c1 [compound 7d, 3,5-dimethoxy-N-(6-methyl-8H-indeno[1,2-d]thiazol-2-yl)benzamide]
inhibition at 20 µM [2]: 21.7 ± 2.2% | inhibitory activity against SARS-CoV-2 3CL^pro (in words, SAR discussion): completely abolished | IC50 [1]: > 20 µM

COc1cc(OC)cc(C(=O)Nc2nc3c(s2)Cc2cc(Cl)ccc2-3)c1 [compound 7e, N-(6-chloro-8H-indeno[1,2-d]thiazol-2-yl)-3,5-dimethoxybenzamide]
inhibition at 20 µM [2]: 27.2 ± 5.3% | inhibitory activity against SARS-CoV-2 3CL^pro (in words, SAR discussion): completely abolished | IC50 [1]: > 20 µM

COc1ccc2c(c1)Cc1sc(NC(=O)c3cc(OC)c(OC)c(OC)c3)nc1-2 [compound 7f, 3,4,5-trimethoxy-N-(6-methoxy-8H-indeno[1,2-d]thiazol-2-yl)benzamide]
inhibition at 20 µM [2]: 5 ± 5.6% | inhibitory activity against SARS-CoV-2 3CL^pro (in words, SAR discussion): dropped significantly | IC50 [1]: > 20 µM

COc1ccc2c(c1)Cc1sc(NC(=O)c3cc(OC(C)=O)cc(OC(C)=O)c3)nc1-2 [compound 7g, 5-((6-methoxy-8H-indeno[1,2-d]thiazol-2-yl)carbamoyl)-1,3-phenylene diacetate]
inhibition at 20 µM [2]: 32.6 ± 6.8% | inhibitory activity against SARS-CoV-2 3CL^pro (in words, SAR discussion): dropped significantly | IC50 [1]: > 20 µM

COc1cccc(C(=O)Nc2nc3c(s2)Cc2cc(OC)ccc2-3)c1 [compound 7h, 3-methoxy-N-(6-methoxy-8H-indeno[1,2-d]thiazol-2-yl)benzamide]
inhibition at 20 µM [2]: 72.5 ± 6.1% | inhibitory activity against SARS-CoV-2 3CL^pro (in words, SAR discussion): almost maintained its inhibitory activities | IC50 [1]: 2.86 ± 0.11 µM

COc1ccc2c(c1)Cc1sc(NC(=O)c3cccc(F)c3)nc1-2 [compound 7i, 3-fluoro-N-(6-methoxy-8H-indeno[1,2-d]thiazol-2-yl)benzamide]
inhibition at 20 µM [2]: 20.3 ± 4.7% | IC50 [1]: > 20 µM

COc1ccc2c(c1)Cc1sc(NC(=O)c3cccs3)nc1-2 [compound 7j, N-(6-methoxy-8H-indeno[1,2-d]thiazol-2-yl)thiophene-2-carboxamide]
IC50: > 20 µM | inhibition at 20 µM [2]: 31.9 ± 18.2%

COc1ccc2c(c1)Cc1sc(NC(=O)c3ccc(Cl)cc3)nc1-2 [compound 7k, 4-chloro-N-(6-methoxy-8H-indeno[1,2-d]thiazol-2-yl)benzamide]
inhibition at 20 µM [2]: 1.5 ± 4.5% | IC50 [1]: > 20 µM

COc1cc(OC)cc(C(=O)Nc2nc3c(s2)CCc2cc(OC)ccc2-3)c1 [compound 7l]
inhibition at 20 µM [2]: -13.1 ± 1.7% | inhibitory activity against SARS-CoV-2 3CL^pro (in words, SAR discussion): did not show any inhibitory activity | IC50 [1]: > 20 µM

COc1cc(OC)cc(C(=O)Nc2nc(-c3ccc(OC)cc3C)cs2)c1 [compound 10a]
inhibition at 20 µM [2]: 1.9 ± 2.1% | inhibitory activity against SARS-CoV-2 3CL^pro (in words, SAR discussion): lost inhibitory activities | IC50 [1]: > 20 µM

COc1cc(OC)cc(C(=O)Nc2nc(-c3ccc(OC)c(C)c3)cs2)c1 [compound 10b, 3,5-dimethoxy-N-(4-(4-methoxy-3-methylphenyl)thiazol-2-yl)benzamide]
inhibition at 20 µM [2]: 1.8 ± 3.5% | inhibitory activity against SARS-CoV-2 3CL^pro (in words, SAR discussion): lost inhibitory activities | IC50 [1]: > 20 µM
